Data reported in PMC7816042, “Insights into the Structure-Activity Relationship of Glycosides as Positive Allosteric Modulators Acting on P2X7 Receptors” (Molecular Pharmacology, 2021).
“And” between values parts separate entries of the source, which are not always exact repeats. Identical values can stand only once. Counter-ions that a name gives are not always drawn.

Biological target: T1, human P2X7 (Homo sapiens, UniProt Q99572)
T1 construct: expressed in transfected cells
T1 sequence (Q99572 1-595): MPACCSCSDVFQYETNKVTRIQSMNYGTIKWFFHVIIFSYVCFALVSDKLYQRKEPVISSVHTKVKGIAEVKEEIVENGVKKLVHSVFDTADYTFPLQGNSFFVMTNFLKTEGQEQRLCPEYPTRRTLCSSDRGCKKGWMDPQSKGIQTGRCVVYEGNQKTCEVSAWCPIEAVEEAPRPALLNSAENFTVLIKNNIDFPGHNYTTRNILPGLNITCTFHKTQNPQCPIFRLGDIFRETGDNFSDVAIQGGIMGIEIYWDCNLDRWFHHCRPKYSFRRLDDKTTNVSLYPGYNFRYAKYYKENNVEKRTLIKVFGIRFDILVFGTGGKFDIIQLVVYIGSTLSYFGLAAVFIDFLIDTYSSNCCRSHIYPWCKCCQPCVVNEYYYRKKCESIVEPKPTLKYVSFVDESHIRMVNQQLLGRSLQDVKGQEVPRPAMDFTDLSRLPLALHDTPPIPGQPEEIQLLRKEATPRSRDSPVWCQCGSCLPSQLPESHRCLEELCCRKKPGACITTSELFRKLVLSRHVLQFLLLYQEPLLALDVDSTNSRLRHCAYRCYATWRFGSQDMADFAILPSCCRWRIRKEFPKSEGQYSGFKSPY
Assay: YO-PRO-1 dye uptake assay in HEK-hP2X7 cells
Format: cell-based
Settings: for ATP-induced YO-PRO-1 response in fixed-concentration screen: 200 µM ATP, compared with ATP + DMSO; for ATP-induced YO-PRO-1 response in fixed-concentration screen / PAM effect on ATP dose-response curve / EC50 ratio / Maximum response (fold increase): 10 µM glycoside; for PAM effect on ATP dose-response curve: HEK-hP2X7, result in words; for EC50 ratio: average EC50 for ATP + vehicle of each set of experiments used; for Maximum response (fold increase): maximum response defined at 1 mM ATP
Procedure: ATP-induced dye uptake experiments were performed as described previously ([Bidula et al., 2019b]). Briefly, HEK-hP2X7 cells were plated at 2 × 10^4 cells per well (100 μl per well) in complete medium and left overnight to attach to poly-D-lysine–coated 96-well plates. YO-PRO-1 iodide was prepared in a low divalent buffered solution ([…], 2 mM KCl, 13 mM D-glucose, 10 mM HEPES, 0.2 mM CaCl2 pH 7.3) to a final concentration of 2 μM. Medium was removed from the plate using a manual multichannel pipette and YO-PRO-1 containing buffer applied to wells (180 μl per well). […] A Flexstation 3 plate reader (Molecular Devices, Sunnyvale, CA) was used to record YO-PRO-1 fluorescence in HEK-hP2X7 for 300 seconds after the addition of ATP (at 10× final concentration) with/without ginsenoside compounds or vehicle (DMSO). Plates were allowed to warm up to 37°C for 10 minutes before initiating the recording. Baseline recordings were made for 40 seconds before compound addition using the Flexstation 3 fluidics system. YO-PRO-1 fluorescence was measured at 520 nm after excitation at 490 nm (auto cutoff at 495 nm), and the sample interval was 3.5 seconds. Flexstation settings were photomultiplier tube (PMT) medium, six reads per well, pipette height 170, and a rate of injection of 3. Data were acquired using Softmax Pro version 5.4 (Molecular Devices). To analyze the data, area under the dye uptake curve was calculated in Softmax Pro version 5 using zero baseline data with a lag time of 50 seconds (50–300 seconds).
Results are expressed as means ± S.D. from the indicated number of experiments. For YO-PRO-1 dye uptake and intracellular calcium experiments, each independent experiment used triplicate wells, and the means of the replicates were collated and plotted. Technical replicates were used to ensure reliability of fluorescence values. […] Dose-response curves were plotted by a nonlinear regression fit with variable slope using GraphPad Prism software version 7. Half-maximal responses are expressed as EC50 values with 95% confidence intervals. These values were calculated from the collated data for each compound from three independent experiments. Statistical differences were determined by analysis of the data by one-way ANOVA followed by Dunnett’s multiple comparison test or Sidak’s multiple comparison test using GraphPad Prism version 7. P < 0.05 was the accepted minimum level of significance.

Compound	ATP-induced YO-PRO-1 response in fixed-concentration screen	PAM effect on ATP dose-response curve	EC50 ratio	Maximum response (fold increase)	Effect of AZ10606120 pretreatment on response to ATP + glycoside (P2X7 dependence) (10 µM AZ10606120 pretreatment)	Toxic effect on cells (YO-PRO-1 uptake without ATP or without P2X7)
CC(C)=CCC[C@](C)(O)[C@H]1CC[C@]2(C)[C@@H]1[C@H](O)C[C@@H]1[C@@]3(C)CC[C@H](O[C@@H]4O[C@H](CO)[C@@H](O)[C@H](O)[C@H]4O[C@@H]4O[C@H](CO)[C@@H](O)[C@H](O)[C@H]4O)C(C)(C)[C@@H]3CC[C@]12C (single isomer, unassigned) [ginsenoside-Rg3 (mixed isomers), ginsenoside-Rg3]	small increase in the ATP-induced YO-PRO-1 response, which was not statistically significant					
CC[C@H](CC[C@@H](C)[C@H]1CC[C@H]2[C@@H]3CC=C4C[C@@H](O[C@@H]5O[C@H](CO)[C@@H](O)[C@H](O)[C@H]5O)CC[C@]4(C)[C@H]3CC[C@]12C)C(C)C [Daucosterol, daucosterol]		no effect on the ATP dose-response curves	0.7	1.33 fold		
COC(=O)[C@@]1(C)CC[C@]2(C(=O)O)CC[C@]3(C)C(=CC[C@@H]4[C@@]5(C)C[C@H](O)[C@H](O[C@@H]6OC[C@@H](O[C@@H]7O[C@H](CO)[C@@H](O)[C@H](O)[C@H]7O)[C@H](O)[C@H]6O)[C@@](C)(CO)[C@@H]5CC[C@]43C)[C@@H]2C1 [Esculentoside A, esculentoside A]	no modulation of P2X7	inactive	0.8	0.94 fold		
CC(C)=CCC[C@@](C)(O)[C@H]1CC[C@]2(C)[C@@H]1[C@H](O)C[C@@H]1[C@@]3(C)CC[C@H](O[C@@H]4O[C@H](CO)[C@@H](O)[C@H](O)[C@H]4O)C(C)(C)[C@@H]3CC[C@]12C [Ginsenoside-20(R)-Rh2, 20(R)-ginsenoside-Rh2]			0.8	1.53 fold		
CC(C)=CCC[C@](C)(O)[C@H]1CC[C@]2(C)[C@@H]1[C@H](O)C[C@@H]1[C@@]3(C)CC[C@H](O[C@@H]4O[C@H](CO)[C@@H](O)[C@H](O)[C@H]4O)C(C)(C)[C@@H]3CC[C@]12C [Ginsenoside-20(S)-Rh2, 20(S)-ginsenoside-Rh2]			1.8	2.6 fold		
CC(C)=CCC[C@](C)(O[C@@H]1O[C@H](CO[C@@H]2O[C@H](CO)[C@@H](O)[C@H](O)[C@H]2O)[C@@H](O)[C@H](O)[C@H]1O)[C@H]1CC[C@]2(C)[C@@H]1[C@H](O)C[C@@H]1[C@@]3(C)CC[C@H](O[C@@H]4O[C@H](CO)[C@@H](O)[C@H](O)[C@H]4O[C@@H]4O[C@H](CO)[C@@H](O)[C@H](O)[C@H]4O)C(C)(C)[C@@H]3CC[C@]12C [Ginsenoside-Rb1, ginsenoside-Rb1]		only type I PAM activity	1.2	1.9 fold and 1.96 fold		
CC1(C)[C@@H](O[C@H]2O[C@H](C(=O)O)[C@@H](O)[C@H](O)[C@H]2O[C@@H]2O[C@H](C(=O)O)[C@@H](O)[C@H](O)[C@H]2O)CC[C@]2(C)[C@H]3C(=O)C=C4[C@@H]5C[C@@](C)(C(=O)O)CC[C@]5(C)CC[C@@]4(C)[C@]3(C)CC[C@@H]12 [Glycyrrhizic acid, glycyrrhizic acid]	no modulation of P2X7					
CC(C)=CCC[C@@](O)(CO[C@@H]1O[C@H](CO)[C@@H](O)[C@H](O)[C@H]1O)[C@H]1CC[C@]2(C)[C@@H]1CC[C@@H]1[C@@]3(C=O)CC[C@H](O[C@@H]4OC[C@H](O)[C@H](O[C@@H]5OC[C@@H](O)[C@H](O)[C@H]5O)[C@H]4O[C@@H]4O[C@@H](C)[C@H](O)[C@@H](O)[C@H]4O)C(C)(C)[C@@H]3CC[C@]12C [Gypenoside XLIX, gypenoside XLIX]	small increase in the ATP-induced YO-PRO-1 response, which was not statistically significant	did not reduce the EC50 value for ATP	0.9	1.9 fold		
C[C@H](CC[C@@H](O[C@@H]1O[C@H](CO[C@@H]2O[C@H](CO)[C@@H](O)[C@H](O)[C@H]2O)[C@@H](O)[C@H](O)[C@H]1O[C@@H]1O[C@H](CO)[C@@H](O)[C@H](O)[C@H]1O)C(C)(C)O)[C@H]1CC[C@@]2(C)[C@@H]3CC=C4[C@@H](CC[C@H](O[C@@H]5O[C@H](CO[C@@H]6O[C@H](CO)[C@@H](O)[C@H](O)[C@H]6O)[C@@H](O)[C@H](O)[C@H]5O)C4(C)C)[C@]3(C)[C@H](O)C[C@]12C [Mogroside V, mogroside V]	no modulation of P2X7					
C[C@@H]1O[C@@H](O[C@H]2C[C@@H](O)[C@]3(CO)[C@H]4[C@H](O)C[C@]5(C)[C@@H](C6=CC(=O)OC6)CC[C@]5(O)[C@@H]4CC[C@]3(O)C2)[C@H](O)[C@H](O)[C@H]1O [Ouabain, ouabain, reference compound]		no effect on the ATP dose-response curves	1.1	1.08 fold		
CC(=O)O[C@@H]1C[C@]2(O)[C@H](CC[C@]3(C)[C@@H](c4ccc(=O)oc4)CC[C@@]32O)[C@@]2(C)CC[C@H](O[C@@H]3O[C@H](CO)[C@@H](O)[C@H](O)[C@H]3O)C=C12 [Scilliroside]		no effect on the ATP dose-response curves	1.3	1.07 fold		
C[C@H]1CC[C@@H]2[C@@H](C)[C@H]3[C@H](C[C@H]4[C@@H]5CC=C6C[C@@H](O[C@@H]7O[C@H](CO)[C@H](O)[C@H](O[C@@H]8O[C@H](CO)[C@@H](O)[C@H](O)[C@H]8O)[C@H]7O[C@@H]7O[C@@H](C)[C@H](O)[C@@H](O)[C@H]7O)CC[C@]6(C)[C@H]5CC[C@]34C)N2C1 [Solanine, solanine hydrochloride]	large increase				unaffected by AZ10606120 pretreatment	toxic effect on the cells
CC(C)=CCC[C@](C)(O[C@@H]1O[C@H](CO[C@@H]2OC[C@@H](O)[C@H](O)[C@H]2O)[C@@H](O)[C@H](O)[C@H]1O)[C@H]1CC[C@]2(C)[C@@H]1[C@H](O)C[C@@H]1[C@@]3(C)CC[C@H](O[C@@H]4O[C@H](CO)[C@@H](O)[C@H](O)[C@H]4O)C(C)(C)[C@@H]3CC[C@]12C [Stevenleaf (gypenoside IX), stevenleaf]			0.7	1.64 fold		
C=C1C[C@@]23CC[C@H]4[C@@](C)(CCC[C@@]4(C)C(=O)O[C@@H]4O[C@H](CO)[C@@H](O)[C@H](O)[C@H]4O)[C@@H]2CC[C@]1(O[C@@H]1O[C@H](CO)[C@@H](O)[C@H](O)[C@H]1O[C@@H]1O[C@H](CO)[C@@H](O)[C@H](O)[C@H]1O)C3 [Stevioside, stevioside]	no modulation of P2X7		1.0			
